IC50 data for two compounds are collected here from ChEMBL document CHEMBL1157838, “Cryptosphaerolide, a cytotoxic Mcl-1 inhibitor from a marine-derived ascomycete related to the genus Cryptosphaeria” (J Nat Prod, 2010).

One experiment relates to HCT-116. Put plainly: Cytotoxicity against human HCT116 cells after 72 hrs by MTS/PMS assay. It counts as functional, cell-based. Conditions: HCT-116, 72 h.
In experiment [1] the target is Induced myeloid leukemia cell differentiation protein Mcl-1 (Homo sapiens, UniProt Q07820). Put plainly: Inhibition of Mcl1 protein by Mcl1/Bak fluorescence resonance assay.
Induced myeloid leukemia cell differentiation protein Mcl-1, sequence (Q07820 whole entry): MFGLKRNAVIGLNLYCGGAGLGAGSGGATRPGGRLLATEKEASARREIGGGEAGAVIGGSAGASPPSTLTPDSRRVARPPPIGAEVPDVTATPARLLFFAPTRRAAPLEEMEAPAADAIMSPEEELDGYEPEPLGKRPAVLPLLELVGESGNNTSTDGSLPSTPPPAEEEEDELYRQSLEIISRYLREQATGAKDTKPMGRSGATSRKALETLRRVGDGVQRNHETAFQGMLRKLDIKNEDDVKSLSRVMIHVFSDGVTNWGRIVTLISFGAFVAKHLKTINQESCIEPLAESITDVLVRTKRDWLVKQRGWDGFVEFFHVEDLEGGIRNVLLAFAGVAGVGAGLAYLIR

pIC50: −log10 of the molar value.

A word on the pIC50: it is the negative decadic logarithm of the IC50, by convention in mol/L. A low value points to a large IC50.

`C=C1CO[C@@]2(O)[C@H]3O[C@]34[C@H](OC(=O)C(O)(CO)CC(C)CC(C)CC)CC[C@H](C)[C@@]4(C)C[C@@H]12` (stereo partly drawn) [CRYPTOSPHAEROLIDE]: the results for the pIC50 (with HCT-116; in experiment [1]) were 5.35 and 4.94, respectively. Take `C=C1CO[C@@]2(OC)[C@H]3O[C@]34[C@H](OC(=O)C(O)(CO)CC(C)CC(C)CC)CC[C@H](C)[C@@]4(C)C[C@@H]12` (stereo partly drawn): in experiment [1], the pIC50 is 4.90.
